# According to patent publication US8952024B2, “Herbicidal pyrimidone derivatives” (E I du Pont de Nemours and Company, priority 2009, dated 2015):
# How the values were obtained:
# Type in all cases: in vivo
# [1] = tested on: cocklebur (Xanthium strumarium); test: Test B pre-/postemergence plant response; conditions: Preemergence
# Text: (§1) Seeds of plant species selected from blackgrass (Alopecurus myosuroides), downy bromegrass (Bromus tectorum), green foxtail (Setaria viridis), Italian ryegrass (Lolium multiflorum), wheat (Triticum aestivum), wild oat (Avena fatua), deadnettle (henbit deadnettle, Lamium amplexicaule), galium (catchweed bedstraw, Galium aparine), bermudagrass (Cynodon dactylon), Surinam grass (Brachiaria decumbens), cocklebur (Xanthium strumarium), corn (Zea mays), large crabgrass (Digitaria sanguinalis), woolly cupgrass (Eriochloa villosa), giant foxtail (Setaria faberii), goosegrass (Eleusine indica), johnsongrass (Sorghum halepense), kochia (Kochia scoparia), lambsquarters (Chenopodium album), morningglory (Ipomoea coccinea), nightshade (eastern black nightshade, Solanum ptycanthum), yellow nutsedge (Cyperus esculentus), pigweed (Amaranthus retroflexus), ragweed (common ragweed, Ambrosia elatior), Russian thistle (Salsola kali), soybean (Glycine max), sunflower (common oilseed sunflower, Helianthus annuus) and velvetleaf (Abutilon theophrasti) were planted into a blend of loam soil and sand and treated preemergence with test compounds formulated in a non-phytotoxic solvent mixture which included a surfactant.
# (§2) At the same time, plants selected from these crop and weed species and also winter barley (Hordeum vulgare), canarygrass (Phalaris minor), chickweed (Stellaria media) and windgrass (Apera spica-venti) were planted in pots containing Redi-Earth® planting medium (Scotts Company, 14111 Scottslawn Road, Marysville, Ohio 43041) comprising spaghnum peat moss, vermiculite, wetting agent and starter nutrients and treated with postemergence applications of some of the test chemicals formulated in the same manner. Plants ranged in height from 2 to 18 cm (1- to 4-leaf stage) for postemergence treatments.
# (§3) Treated plants and controls were maintained in a greenhouse for 13 to 15 days, after which time all treated plants were visually evaluated and compared to controls. Plant response ratings, summarized in Table B, are based on a scale of 0 to 100 where 0 is no effect and 100 is complete control. A dash (-) response means no test result.
# corn (Zea mays) = test: Test B pre-/postemergence plant response
# Text: as §1, §2, §3
# soybean (Glycine max) = test: Test B pre-/postemergence plant response
# Text: as §1, §2, §3
# [2] = tested on: morningglory (Ipomoea coccinea); test: Test B pre-/postemergence plant response
# Text: as §1, §2, §3
# [3] = tested on: ragweed (common ragweed, Ambrosia elatior); test: Test B pre-/postemergence plant response
# Text: as §1, §2, §3
# [4] = tested on: bermudagrass (Cynodon dactylon); test: Test B pre-/postemergence plant response
# Text: as §1, §2, §3
# [5] = tested on: Italian ryegrass (Lolium multiflorum); test: Test B pre-/postemergence plant response
# Text: as §1, §2, §3
# [6] = tested on: Surinam grass (Brachiaria decumbens); test: Test B pre-/postemergence plant response
# Text: as §1, §2, §3
# [7] = tested on: blackgrass (Alopecurus myosuroides); test: Test B pre-/postemergence plant response
# Text: as §1, §2, §3
# [8] = tested on: ducksalad (Heteranthera limosa); test: Test B flooded paddy test; conditions: for Plant response rating, Flood, Ducksalad: 250 g ai/ha, flooded paddy test, visual rating on 0 to 100 scale (0 no effect, 100 complete control) after 13 to 15 days; for Plant response rating, Ducksalad: Flood (flooded paddy test), 13 to 15 days
# Summary of the method: (§4)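 Greenhouse-held for 13 to 15 days, treated pots were compared visually with controls and scored 0–100 (0, no effect). Treatment had been made into paddy water kept at 3 cm above the soil, with plants at the 2-leaf stage.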
# rice (Oryza sativa) = test: Test B flooded paddy test; conditions: for Plant response rating, Flood, Rice: 250 g ai/ha, flooded paddy test, visual rating on 0 to 100 scale (0 no effect, 100 complete control) after 13 to 15 days; for Plant response rating, Rice: Flood (flooded paddy test), 13 to 15 days
# Summary of the method: as §4
# [9] = tested on: umbrella sedge (Cyperus difformis); test: Test B flooded paddy test; conditions: for Plant response rating, Flood, Sedge, Umbrella: 250 g ai/ha, flooded paddy test, visual rating on 0 to 100 scale (0 no effect, 100 complete control) after 13 to 15 days; for Plant response rating, Sedge, Umbrella: Flood (flooded paddy test), 13 to 15 days
# Summary of the method: as §4
# [10] = tested on: barnyardgrass (Echinochloa crus-galli); test: Test B flooded paddy test; conditions: for Plant response rating, Flood, Barnyardgrass: 250 g ai/ha, flooded paddy test, visual rating on 0 to 100 scale (0 no effect, 100 complete control) after 13 to 15 days; for Plant response rating, Barnyardgrass: Flood (flooded paddy test), 13 to 15 days
# Summary of the method: as §4
# [11] = 250 g ai/ha, Preemergence, 0 to 100 scale
# [12] = Postemergence, 31 g ai/ha, scale 0 to 100 (0 no effect, 100 complete control)
# [13] = Postemergence, 62 g ai/ha, scale 0 (no effect) to 100 (complete control), 13 to 15 days
# [14] = Postemergence, 125 g ai/ha, visual rating after 13 to 15 days, scale 0 (no effect) to 100 (complete control)
# [15] = Postemergence, 250 g ai/ha, scale 0 to 100
# [16] = Preemergence, 31 g ai/ha, scale 0 to 100 (0 no effect, 100 complete control)
# [17] = Preemergence, 62 g ai/ha, scale 0 to 100 (0 no effect, 100 complete control)
# [18] = Preemergence, 125 g ai/ha, 0 to 100 scale
# [19] = 31 g ai/ha, scale of 0 to 100 where 0 is no effect and 100 is complete control
# [20] = 62 g ai/ha, scale 0 to 100, 0 is no effect, 100 is complete control
# [21] = 125 g ai/ha, scale 0 to 100, 0 is no effect, 100 is complete control
structure (smiles),measurement,setting,value
Cc1ccccc1-n1c(-c2cccc(Cl)c2)ncc(C(=O)C2=C(O)CCCC2=O)c1=O [Compound 36],"Plant response rating, Cocklebur","[1]; 250 g ai/ha, 0 to 100 scale",80
same,"Plant response rating, Corn",corn (Zea mays); [11],0
same,"Plant response rating, Corn",corn (Zea mays); [12],50
same,"Plant response rating, Corn",corn (Zea mays); [13],55
same,"Plant response rating, Corn",corn (Zea mays); [14],65
same,Corn plant response rating,corn (Zea mays); [15],85
same,"Plant response rating, Corn",corn (Zea mays); [16],0
same,"Plant response rating, Corn",corn (Zea mays); [17],0
same,Corn plant response rating,corn (Zea mays); [18],0
same,"Plant response rating, Soybean",soybean (Glycine max); [11],40
same,"Plant response rating, Soybean",soybean (Glycine max); [13],98
same,"Plant response rating, Soybean",soybean (Glycine max); [14],100
same,"Plant response rating, Soybean",soybean (Glycine max); [16],0
same,Soybean plant response rating,soybean (Glycine max); [18],0
same,"Plant response rating, Morningglory",[2]; [11],20
same,"Plant response rating, Morningglory",[2]; [13],70
same,"Plant response rating, Morningglory",[2]; [14],75
same,"Plant response rating, Morningglory",[2]; [16],0
same,"Plant response rating, Morningglory",[2]; [17],0
same,Morningglory plant response rating,[2]; [18],0
same,"Plant response rating, Ragweed",[3]; [11],90
same,"Plant response rating, Ragweed",[3]; [13],90
same,"Plant response rating, Ragweed",[3]; [14],95
same,"Plant response rating, Ragweed",[3]; [16],35
same,Ragweed plant response rating,[3]; [18],85
same,"Plant response rating, Bermudagrass",[4]; [11],100
same,"Plant response rating, Bermudagrass",[4]; [12],90
same,"Plant response rating, Bermudagrass",[4]; [13],98
same,"Plant response rating, Bermudagrass",[4]; [14],100
same,Bermudagrass plant response rating,[4]; [15],100
same,"Plant response rating, Bermudagrass",[4]; [16],95
same,"Plant response rating, Bermudagrass",[4]; [17],100
same,Bermudagrass plant response rating,[4]; [18],100
same,"Plant response rating, Ryegrass, Italian",[5]; [11],0
same,"Plant response rating, Ryegrass, Italian",[5]; [13],5
same,"Plant response rating, Ryegrass, Italian",[5]; [14],10
same,"Plant response rating, Ryegrass, Italian",[5]; [16],0
same,"Ryegrass, Italian plant response rating",[5]; [18],0
same,"Plant response rating, Surinam Grass",[6]; [11],100
same,"Plant response rating, Surinam Grass",[6]; [13],85
same,"Plant response rating, Surinam Grass",[6]; [14],85
same,"Plant response rating, Surinam Grass",[6]; [16],70
same,Surinam Grass plant response rating,[6]; [18],100
same,"Plant response rating, Blackgrass",[7]; [11],25
same,"Plant response rating, Blackgrass",[7]; [12],5
same,"Plant response rating, Blackgrass",[7]; [13],5
same,"Plant response rating, Blackgrass",[7]; [14],15
same,Blackgrass plant response rating,[7]; [15],15
same,"Plant response rating, Blackgrass",[7]; [16],20
same,"Plant response rating, Blackgrass",[7]; [17],25
same,Blackgrass plant response rating,[7]; [18],25
same,"Plant response rating, Flood, Ducksalad",[8],40
same,"Plant response rating, Ducksalad",[8]; [19],0
same,"Plant response rating, Ducksalad",[8]; [20],0
same,"Plant response rating, Ducksalad",[8]; [21],0
same,"Plant response rating, Flood, Rice",rice (Oryza sativa),35
same,"Plant response rating, Rice",rice (Oryza sativa); [19],0
same,"Plant response rating, Rice",rice (Oryza sativa); [20],0
same,"Plant response rating, Rice",rice (Oryza sativa); [21],20
same,"Plant response rating, Flood, Sedge, Umbrella",[9],20
same,"Plant response rating, Sedge, Umbrella",[9]; [19],0
same,"Plant response rating, Sedge, Umbrella",[9]; [20],0
same,"Plant response rating, Sedge, Umbrella",[9]; [21],0
same,"Plant response rating, Flood, Barnyardgrass",[10],15
same,"Plant response rating, Barnyardgrass",[10]; [19],0
same,"Plant response rating, Barnyardgrass",[10]; [20],0
same,"Plant response rating, Barnyardgrass",[10]; [21],0
O=C1CCCC(O)=C1C(=O)c1cnc(-c2ccccc2)n(-c2cccc(Br)c2)c1=O [Compound 38],"Plant response rating, Cocklebur","[1]; 250 g ai/ha, 0 to 100 scale",90
same,"Plant response rating, Cocklebur","[1]; 31 g ai/ha, scale 0 to 100 (0 no effect, 100 complete control)",0
same,"Plant response rating, Cocklebur","[1]; 62 g ai/ha, scale 0 to 100 (0 no effect, 100 complete control)",10
same,Cocklebur plant response rating,"[1]; 125 g ai/ha, 0 to 100 scale",25
same,"Plant response rating, Corn",corn (Zea mays); [11],0
same,"Plant response rating, Corn",corn (Zea mays); [12],55
same,"Plant response rating, Corn",corn (Zea mays); [13],70
same,"Plant response rating, Corn",corn (Zea mays); [14],75
same,Corn plant response rating,corn (Zea mays); [15],90
same,"Plant response rating, Corn",corn (Zea mays); [16],0
same,"Plant response rating, Corn",corn (Zea mays); [17],0
same,Corn plant response rating,corn (Zea mays); [18],0
same,"Plant response rating, Soybean",soybean (Glycine max); [11],75
same,"Plant response rating, Soybean",soybean (Glycine max); [13],85
same,"Plant response rating, Soybean",soybean (Glycine max); [14],90
same,"Plant response rating, Soybean",soybean (Glycine max); [16],0
same,Soybean plant response rating,soybean (Glycine max); [18],0
same,"Plant response rating, Morningglory",[2]; [11],100
same,"Plant response rating, Morningglory",[2]; [13],70
same,"Plant response rating, Morningglory",[2]; [14],75
same,"Plant response rating, Morningglory",[2]; [16],0
same,"Plant response rating, Morningglory",[2]; [17],0
same,Morningglory plant response rating,[2]; [18],0
same,"Plant response rating, Ragweed",[3]; [11],95
same,"Plant response rating, Ragweed",[3]; [13],80
same,"Plant response rating, Ragweed",[3]; [14],80
same,"Plant response rating, Ragweed",[3]; [16],40
same,Ragweed plant response rating,[3]; [18],80
same,"Plant response rating, Bermudagrass",[4]; [11],100
same,"Plant response rating, Bermudagrass",[4]; [12],98
same,"Plant response rating, Bermudagrass",[4]; [13],100
same,"Plant response rating, Bermudagrass",[4]; [14],100
same,Bermudagrass plant response rating,[4]; [15],100
same,"Plant response rating, Bermudagrass",[4]; [16],98
same,"Plant response rating, Bermudagrass",[4]; [17],100
same,Bermudagrass plant response rating,[4]; [18],100
same,"Plant response rating, Ryegrass, Italian",[5]; [11],40
same,"Plant response rating, Ryegrass, Italian",[5]; [13],50
same,"Plant response rating, Ryegrass, Italian",[5]; [14],60
same,"Plant response rating, Ryegrass, Italian",[5]; [16],0
same,"Ryegrass, Italian plant response rating",[5]; [18],5
same,"Plant response rating, Surinam Grass",[6]; [11],80
same,"Plant response rating, Surinam Grass",[6]; [13],85
same,"Plant response rating, Surinam Grass",[6]; [14],90
same,"Plant response rating, Surinam Grass",[6]; [16],40
same,Surinam Grass plant response rating,[6]; [18],65
same,"Plant response rating, Blackgrass",[7]; [11],40
same,"Plant response rating, Blackgrass",[7]; [12],5
same,"Plant response rating, Blackgrass",[7]; [13],15
same,"Plant response rating, Blackgrass",[7]; [14],15
same,Blackgrass plant response rating,[7]; [15],40
same,"Plant response rating, Blackgrass",[7]; [16],0
same,"Plant response rating, Blackgrass",[7]; [17],5
same,Blackgrass plant response rating,[7]; [18],30
same,"Plant response rating, Flood, Ducksalad",[8],65
same,"Plant response rating, Ducksalad",[8]; [19],0
same,"Plant response rating, Ducksalad",[8]; [20],20
same,"Plant response rating, Ducksalad",[8]; [21],60
same,"Plant response rating, Flood, Rice",rice (Oryza sativa),0
same,"Plant response rating, Rice",rice (Oryza sativa); [19],0
same,"Plant response rating, Rice",rice (Oryza sativa); [20],0
same,"Plant response rating, Rice",rice (Oryza sativa); [21],0
same,"Plant response rating, Flood, Sedge, Umbrella",[9],40
same,"Plant response rating, Sedge, Umbrella",[9]; [19],0
same,"Plant response rating, Sedge, Umbrella",[9]; [20],0
same,"Plant response rating, Sedge, Umbrella",[9]; [21],30
same,"Plant response rating, Flood, Barnyardgrass",[10],0
same,"Plant response rating, Barnyardgrass",[10]; [19],0
same,"Plant response rating, Barnyardgrass",[10]; [20],0
same,"Plant response rating, Barnyardgrass",[10]; [21],0
